Columns and labels:
BRD4 BD1 = target: T1, BRD4 BD1 (Homo sapiens, UniProt O60885); experiment: NanoBRET bromodomain assay, NanoLuc-BRD4-BD1 in HEK293 cells; type: binding
T1 construct: HEK293 cells were transfected using NanoLuc-BRD4-BD1 or NanoLuc-BRD4-BD2 fusion vectors
Method: Exemplary compounds of the disclosure are active against BRD4 BD2 and selective over BRD4 BD1. BRD4 is a representative example of the BET family, as the binding sites of all BET family members are structurally similar. […] IC50s and fold selectivity's are determined as described below and are represented in Table 1.
(§1) Plates were then incubated at 37° C.+5% CO2 incubator for 2 hours.
(§2) Fold Selectivity Calculated (IC50 BD1/IC50 BD2).

BRD4 BD2 = target: T2, BRD4 BD2 (Homo sapiens, UniProt O60885); experiment: NanoBRET bromodomain assay, NanoLuc-BRD4-BD2 in HEK293 cells; type: binding; conditions: for Fold Selectivity BRD4 BD1/BD2: IC50 BD1/IC50 BD2, qualitative if an IC50 is at the upper limit
T2 construct: HEK293 cells were transfected using NanoLuc-BRD4-BD1 or NanoLuc-BRD4-BD2 fusion vectors
Method: as §1, §2

Question: Which results are given for `Cn1cc(-c2ccccc2)c(-c2cn(C)c(=O)c3[nH]c(-c4cccn(C)c4=O)cc23)cc1=O` [Example 1, 6-methyl-2-(1-methyl-2-oxo-1,2-dihydropyridin-3-yl)-4-(1-methyl-2-oxo-5-phenyl-1,2-dihydropyridin-4-yl)-1,6-dihydro-7H-pyrrolo[2,3-c]pyridin-7-one]?
Answer: IC50 (BRD4 BD1): > 1000 nM; IC50 (BRD4 BD2): 10 to 50 nM; Fold Selectivity BRD4 BD1/BD2 (BRD4 BD2): xxx (Fold >200 and ≤1000)

Question: How did the IC50 (BRD4 BD1) turn out when `Cn1cc(-c2cccc(CS(C)(=O)=O)c2)c(-c2cn(C)c(=O)c3[nH]c(-c4cnn(C(F)(F)F)c4)cc23)cc1=O` [Example 2, 6-methyl-4-(1-methyl-5-(3-((methylsulfonyl)methyl)phenyl)-2-oxo-1,2-dihydropyridin-4-yl)-2-(1-(trifluoromethyl)-1H-pyrazol-4-yl)-1,6-dihydro-7H-pyrrolo[2,3-c]pyridin-7-one] was run?
Answer: > 1000 nM

Question: And the IC50 (BRD4 BD2)?
Answer: 50 to 200 nM

Question: What about the “Fold Selectivity BRD4 BD1/BD2” value (BRD4 BD2) of the same molecule?
Answer: xx (Fold >50 and ≤200)

Question: How did the IC50 (BRD4 BD1) turn out when `CN(C)CCOc1cccc(-c2cn(C)c(=O)cc2-c2cn(C)c(=O)c3[nH]c(-c4cnn(C(F)(F)F)c4)cc23)c1` [Example 3, 4-(5-(3-(2-(dimethylamino)ethoxy)phenyl)-1-methyl-2-oxo-1,2-dihydropyridin-4-yl)-6-methyl-2-(1-(trifluoromethyl)-1H-pyrazol-4-yl)-1,6-dihydro-7H-pyrrolo[2,3-c]pyridin-7-one] was run?
Answer: > 1000 nM

Question: What about the IC50 (BRD4 BD2) of the same molecule?
Answer: 50 to 200 nM

Question: And the “Fold Selectivity BRD4 BD1/BD2” value (BRD4 BD2)?
Answer: xx (Fold >50 and ≤200)

Question: Which IC50 (BRD4 BD1) does the source give for `Cn1cc(-c2cccc(CN3CCNCC3)c2)c(-c2cn(C)c(=O)c3[nH]c(-c4cnn(C(F)(F)F)c4)cc23)cc1=O` [Example 4, 6-methyl-4-(1-methyl-2-oxo-5-(3-(piperazin-1-ylmethyl)phenyl)-1,2-dihydropyridin-4-yl)-2-(1-(trifluoromethyl)-1H-pyrazol-4-yl)-1,6-dihydro-7H-pyrrolo[2,3-c]pyridin-7-one] here?
Answer: > 1000 nM

Question: What about the IC50 (BRD4 BD2) of the same molecule?
Answer: > 1000 nM

Question: And the “Fold Selectivity BRD4 BD1/BD2” value (BRD4 BD2)?
Answer: — (Fold ≥0 and ≤2)

Question: Which results are given for `Cn1cc(-c2cc(=O)n(C3COC3)cc2-c2ccccc2)c2cc(-c3cnn(C(F)(F)F)c3)[nH]c2c1=O` [Example 5, 6-methyl-4-(1-(oxetan-3-yl)-2-oxo-5-phenyl-1,2-dihydropyridin-4-yl)-2-(1-(trifluoromethyl)-1H-pyrazol-4-yl)-1,6-dihydro-7H-pyrrolo[2,3-c]pyridin-7-one]?
Answer: IC50 (BRD4 BD1): > 1000 nM; IC50 (BRD4 BD2): 10 to 50 nM; Fold Selectivity BRD4 BD1/BD2 (BRD4 BD2): xxx (Fold >200 and ≤1000)

Question: What does the source list for `Cn1cc(-c2cccc3c2COC3)c(-c2cn(C)c(=O)c3[nH]c(-c4ccc(F)cc4F)cc23)cc1=O` [Example 6, 2-(2,4-difluorophenyl)-4-(5-(1,3-dihydroisobenzofuran-4-yl)-1-methyl-2-oxo-1,2-dihydropyridin-4-yl)-6-methyl-1,6-dihydro-7H-pyrrolo[2,3-c]pyridin-7-one]?
Answer: IC50 (BRD4 BD1): > 1000 nM; IC50 (BRD4 BD2): < 10 nM; Fold Selectivity BRD4 BD1/BD2 (BRD4 BD2): xxxx (Fold >1000)
